# Target: T1, Human aromatase enzyme (Homo sapiens, UniProt P11511)
# T1 construct: The enzyme preparation was used without further purification; from tissue; host or cells: human placenta, microsomal fraction (100000 x g precipitate)
# T1 sequence (P11511 1-503): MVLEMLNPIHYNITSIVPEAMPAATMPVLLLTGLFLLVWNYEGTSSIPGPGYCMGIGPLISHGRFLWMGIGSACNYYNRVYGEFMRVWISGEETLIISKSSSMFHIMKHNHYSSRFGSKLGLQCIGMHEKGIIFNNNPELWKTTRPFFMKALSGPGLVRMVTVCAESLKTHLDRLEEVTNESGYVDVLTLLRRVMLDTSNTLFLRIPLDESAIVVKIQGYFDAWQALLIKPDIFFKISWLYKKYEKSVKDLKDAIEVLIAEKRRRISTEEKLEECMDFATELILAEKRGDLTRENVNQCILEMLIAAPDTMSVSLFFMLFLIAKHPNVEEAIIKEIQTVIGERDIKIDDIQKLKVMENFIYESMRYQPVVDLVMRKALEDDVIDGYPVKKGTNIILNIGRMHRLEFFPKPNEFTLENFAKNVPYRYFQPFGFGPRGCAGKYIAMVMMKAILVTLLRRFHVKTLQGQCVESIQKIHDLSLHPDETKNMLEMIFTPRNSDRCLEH
# Assay: In vitro aromatase inhibition assay (3H2O release from 1,2[3H]-androstene-3,17-dione)
# Assay type: biochemical
row,SMILES,IC50
1,"COc1ccc(CCCCC(c2ccc(F)cc2)c2c[nH]cn2)cc1 (centres unmarked) [Compound 12b, 4-[1-(4-fluorophenyl)-5-(4-methoxyphenyl)pentyl]-1H-imidazole]",3 µM
2,"Cc1cccc(C)c1CCCCC(c1ccc(F)cc1)c1c[nH]cn1 (centres unmarked) [Compound 13b, 4-[1-(4-fluorophenyl)-5-(2,6-dimethylphenyl)-pentyl]-1H-imidazole]",7.7 µM
3,"COc1cccc(CCCCC(c2ccc(F)cc2)c2c[nH]cn2)c1 (centres unmarked) [Compound 11b, 4-[1-(4-fluorophenyl)-5-(3-methoxyphenyl)pentyl]-1H-imidazole]",2.6 µM
4,"Cc1cc(C)cc(CCCCC(c2ccc(F)cc2)c2c[nH]cn2)c1 (centres unmarked) [Compound 5b, 4-[5-(3,5-dimethylphenyl)-1-(4-fluorophenyl)-pentyl]-1H-imidazole]",7.5 µM
5,"c1ccc(CCC(c2ccccc2)c2cncn2Cc2ccccc2)cc1 (centres unmarked) [Compound 8b, 1-benzyl-5-(1,3-diphenylpropyl)-1H-imidazole]",30 µM

# — patent EP0390558B1, “Aromatase inhibiting 4(5)-imidazoles” (ORION-YHTYMÄ OY, priority 1989, dated 1990)
